Ends that are not written are not given here.
Tests used:
Malassezia furfur = test: Growth inhibition at equal concentrations by weight of P18, zinc pyrithione, climbazole, ketoconazole (CFU); assay type: cell-based
Method: (§1) The studies described hereinafter were conducted on the Malassezia furfur strain DSM 6170.
For this purpose, the procedure was as follows:
(§2) The growth test was effected as follows: a shake culture containing M472 Pityrosporum medium was inoculated with M. furfur and incubated with shaking at 30° C. and 200 rpm overnight.
A 96-well microtiter plate was filled with 100 μl per well of M472 Pityrosporum medium and inoculated with M. furfur suspension from the overnight culture. The M. furfur suspension was adjusted at the start of the experiment to an optical density, measured at 600 nm, of 0.02. The concentrates of the inhibitor solutions were 1 mM in DMSO for P18 peptide and 10 mM in DMSO for zinc pyrithione, ketoconazole and climbazole. The final DMSO concentration was kept the same in all experiments.
The following growth was compared by measuring the optical density: • M. furfur suspension and addition of the P18 solution with a final concentration of 50 μM (corresponds to 0.0115% (w/w)) • M. furfur suspension and addition of the zinc pyrithione (ZPT) solution with a final concentration of 362 μM (comparison to the mixture containing 50 μM P18 peptide) • M. furfur suspension and addition of the ketoconazole solution with a final concentration of 216 μM (comparison to the mixture containing 50 μM P18 peptide) • M. furfur suspension and addition of the climbazole solution with a final concentration of 390 μM (comparison to the mixture containing 50 μM P18 peptide)
The microtiter plate was incubated with shaking at 30° C.
[…] After incubation over the course of 6 days, the colonies on the plate were counted. The CFU was determined in order to rule out any influence of the biphasic medium, and also the growth form of M. furfur, on the optical density. The experiments were each conducted in double determination, at least in two independent experiments.

M. furfur DSM 6170 = test: Comparison of further inventive peptides and AFPP (CFU); assay type: cell-based, Malassezia furfur; details: 0.3%; 10 minutes
Description: In order to compare the effect of other inventive peptides with the effect of the antifungal polypeptide AFPP from Aspergillus giganteus on the growth of Malassezia furfur, the procedure was as follows:
As a comparison, the peptide variants with SEQ ID NO. 4726 (sequence: FKKALHLFKPIKKFLKWK-NH2 (Bachem AG, Switzerland)) and SEQ ID NO. 4727 (sequence: KFLHLAKKFPKWKLFKKI-NH2 (Bachem AG, Switzerland)) were selected. The peptide and AFPP concentrates were in the form of 2% (w/w) solutions in phosphate buffer (10 mM sodium phosphate, pH 7.5, 100 mM NaCl). […]
For each test mixture, a 1.5 ml reaction vessel was filled with Pityrosporum medium and inoculated with the M. furfur overnight culture to give a start OD of 0.1, measured at 600 nm.
The growth of the following test mixtures was monitored: • M. furfur suspension and addition of 90 μl of phosphate buffer (in order to rule out any influence of the phosphate buffer on the effect of the active peptides at a final concentration of 0.3%) • M. furfur suspension with a final concentration of the inventive peptide variant with SEQ ID NO. […]
The reaction volume was 600 μl in each case. […] The CFU (colony forming units) were determined by counting after incubation at 30° C. for 6 days. […]

M. furfur = test: Effect of P18 variants (CFU); assay type: cell-based, Malassezia furfur; details: 50 μM peptide, with DMSO; 24 h
Method: as §1
The inhibitory effect of the following P18 variants on M. furfur was studied:
as §2
A 96-well microtiter plate was filled with 100 μl per well of M472 Pityrosporum medium and inoculated with M. furfur suspension from the overnight culture. The M. furfur suspension was adjusted at the start of the experiment to an optical density, measured at 600 nm, of 0.1.
The peptide variants were dissolved with a final concentration of 1 mM in dimethyl sulfoxide (DMSO). It is also possible to dispense with DMSO and to use a purely aqueous peptide solution. 5 μl of this solution were added to 100 μl of M. furfur suspension (final concentration of the P18 peptide 50 μM). In a control mixture, the same amount of DMSO without P18 peptide was added.
The microtiter plate was incubated with shaking at 30°.
After 24 h, the colony forming units (CFU) were determined by streaking 10 μl of each of the suspensions and, after incubation over the course of 6 days, counting the colonies. Two independent experiments each with three identical mixtures were conducted, and the number of colony forming units was averaged.

| Molecule | Colony forming units after the incubation time specified (M. furfur DSM 6170) | Averaged number of colony forming units (CFU) (M. furfur) | other results |
| --- | --- | --- | --- |
| CC(C)(C)C(=O)C(Oc1ccc(Cl)cc1)n1ccnc1 (centres unmarked) [climbazole] | – | – | Colony forming units (CFU) (Malassezia furfur; final conc. 390 μM, 24 h): 137 ± 33 CFU; Colony forming units (CFU) (Malassezia furfur; final conc. 390 μM, 40 h): 35 ± 15 CFU |
| CC(=O)N1CCN(c2ccc(OCC3COC(Cn4ccnc4)(c4ccc(Cl)cc4Cl)O3)cc2)CC1 (centres unmarked) [ketoconazole] | – | – | Colony forming units (CFU) (Malassezia furfur; final conc. 216 μM, 24 h): 84 ± 76 CFU; Colony forming units (CFU) (Malassezia furfur; final conc. 216 μM, 40 h): 9 ± 5 CFU |
| FKKALHLFKPIKKFLKWK-NH2 [Peptide variant SEQ ID NO. 4726] | 3 ± 1 CFU | – | – |
| H-KWKLFKKIPKFLHLAKKF-OH [P18-OH] | – | 3 CFU | – |
| H-PKWKLFKKIPKFLHLAKKFD-OH [P18AC-OH] | – | 37 CFU | – |
| KFLHLAKKFPKWKLFKKI-NH2 [Peptide variant SEQ ID NO. 4727] | 59 ± 46 CFU | – | – |
